{"source": "patent US6362360B1", "about": "“3-aryl-2-hydroxypropionic acid derivative III” (AstraZeneca AB, priority 1998, dated 2002)", "tested_on": "obese diabetic mice of the Umeå ob/ob strain", "assay": "Biological activity in obese diabetic ob/ob mice (plasma glucose, insulin, triglycerides; weight gain)", "format": "in vivo", "description": "The biological activity of the compound of the invention was tested in obese diabetic mice of the Umeå ob/ob strain. Groups of mice received the test compound by gavage once daily for 7 days. On the last day of the experiment the animals were anesthetized 2 h after dose in a non-fed state and blood was collected from an incised artery. Plasma was analyzed for concentration of glucose, insulin and triglycerides. A group of untreated obese diabetic mice of the same age served as control. The weights of the mice were measured before and after the experiment and the obtained weight gains were compared to the weight gains of the control animals. The individual values for glucose, insulin and triglyceride levels of the mice from the test group were expressed as the percentage rage of the corresponding values from the control group. The desired “therapeutic effect” was calculated as the average percent reduction of the three variables glucose, insulin and triglycerides below the levels in the control animals. The therapeutic effect of the tested compounds according to the invention was compared to the same effect in the prior art compound troglitazone, administrered by gavage in the oral dose of 100 μmol/kg for 7 days."}
{"smiles": "CCO[C@@H](Cc1ccc(OCCc2ccc(NC(=O)OC(C)(C)C)cc2)cc1)C(=O)O", "note": "[compound of the invention, 3-{4-[2-(4-tert-Butoxycarbonylaminophenyl)ethoxy]phenyl}-(S)-2-ethoxy propanoic acid]", "values": [{"measurement": "therapeutic effect (average percent reduction of glucose, insulin and triglycerides below the levels in the control animals)", "setting": "gavage once daily for 7 days, compared to troglitazone in the same oral dose (100 μmol/kg for 7 days)", "value": "superior effects"}, {"measurement": "weight gain", "setting": "weights measured before and after the 7-day experiment, compared to control animals", "value": "without undesirable weight gain"}]}
